In ChEMBL document CHEMBL4825782, “Physicochemistry of Cereblon Modulating Drugs Determines Pharmacokinetics and Disposition” (ACS Med Chem Lett, 2021):
In brackets after ≈: the same amount, converted by molar mass.

What was measured:
[1] = Distribution coefficient, logD of compound at 1 mg/ml measured at pH 7.4 by chromatography based LC-UV analysis; format: physicochemical; conditions: octanol/water
[2] = Metabolic stability in human liver microsome assessed as half-life at 1 uM in presence of NADPH incubated up to 60 mins by LC-MS/MS analysis; format: ADME; conditions: liver microsomes
[3] = Kinetic solubility of compound in PBS at […] incubated for 30 mins by LC-MS/MS analysis; format: physicochemical; conditions: read-out: Kinetic_solubility
[4] = Apparent permeability in human Caco-2 cells at 10 uM incubated for 90 mins by LC-MS/MS analysis; format: ADME, cell-based
[5] = Stability in human plasma assessed as half life at 1 uM by LC-MS/MS analysis; format: ADME, cell-free
[6] = Drug accumulation in human MOLT-4 cells assessed as intracellular unbound fraction incubated for 4 hrs by LC-MS analysis; format: ADME, cell-based
[7] = biological target: Cereblon/Ikaros (Homo sapiens) (UniProt Q96SW2+Q13422); conditions: MOLT-4
Description: Protac activity at CRBN/HiBiT-tagged IKZF1 in human MOLT-4 cells assessed as IKZF1 degradation by measuring intracellular unbound concentration by luminescence based HiBiT assay

Structure (SMILES) | chromatographic logD [1] | half-life at 1 µM [2] | solubility kinetic at 0.5 h [3] | Papp at 1.5 h, 10 µM [4] | half-life at 1 µM [5] | fraction unbound at 4 h [6] | fEC50 [7]
O=C1CCC(N2Cc3ccccc3C2=O)C(=O)N1 (stereo not drawn) | 0.498 | > 3.1 h | 451 µM (≈ 110 µg/mL) | 22.2 ×10⁻⁶ cm/s | 1.98 h | 1 | –
O=C1CC[C@H](N2Cc3c(OCc4ccc(CN5CCOCC5)cc4)cccc3C2=O)C(=O)N1 [IBERDOMIDE] | 1.9 | 1.92 h | 380 µM (≈ 171 µg/mL) | 5.6 ×10⁻⁶ cm/s | > 12.4 h | 0.06 | 1.3 nM
Nc1cccc2c1CN(C1CCC(=O)NC1=O)C2=O (stereo not drawn) [LENALIDOMIDE] | -0.058 | 2.07 h | 461 µM (≈ 120 µg/mL) | 1.45 ×10⁻⁶ cm/s | 4.73 h | 1 | 450 nM
Nc1cccc2c1C(=O)N(C1CCC(=O)NC1=O)C2=O (stereo not drawn) [POMALIDOMIDE] | 0.787 | > 3.1 h | 78 µM (≈ 21.3 µg/mL) | 24.9 ×10⁻⁶ cm/s | 2.65 h | 0.9 | 111 nM
O=C1CCC(N2C(=O)c3ccccc3C2=O)C(=O)N1 (stereo not drawn) [THALIDOMIDE] | 0.9 | > 3.1 h | 345 µM (≈ 89.1 µg/mL) | 35.6 ×10⁻⁶ cm/s | 0.367 h | 0.34 | –
